System: Primary neuronal cultures
Assay: Neuroprotection after oxygen-glucose deprivation (OGD 4 h, 24 h recovery) in primary neuronal cultures, cell viability by MTT assay
Type: cell-based, rat
Conditions: for cell viability: MTT absorbance after OGD 4 h and 24 h recovery, R24h vehicle 1.480 ± 0.02 AU, control 1.916 ± 0.07 AU; for Neuroprotection at 1 µM / Neuroprotection at 10 µM / Neuroprotection at 100 µM: Rattus norvegicus; for Neuroprotection at 1 µM: Conc 1 µM; for Neuroprotection at 10 µM: Conc 10 µM; for protective effect (cell viability compared with vehicle-treated group R24h), in words: concentration range tested, from 0.1 to 250 µM; for neuroprotection effect / potency compared with references, in words: 1 µM for the compounds of the invention vs 10 µM for QN23 and 100 µM NXY-059; for toxicity / safety, in words: all tested doses
Description: Primary Neuronal Cultures. Primary neuronal cultures were prepared from rat embryos cerebral cortex following a procedure previously described by our group. Briefly, cell suspensions were prepared from cerebral cortices from E16 Sprague Dawley rat embryos and seeded on plastic multidishes precoated with 0.05 mg/mL poly-D-lysine at a density of 2.5 × 10^5 cells/cm^2. Cells were kept at 37 °C in a 6.5% CO2 atmosphere in high glucose DMEM medium supplemented with 15% heat-inactivated (56 °C, 30 min) fetal calf serum. After 24 h, culture medium was replaced by serum-free medium (DMEM/Ham's F12, 1:1 vol/vol, 5 mg/mL glucose, 2 mM L-glutamine, and 1 mM sodium pyruvate, supplemented with 100 µg/mL transferrin, 100 µM putrescine, 30 nM sodium selenite, 20 nM progesterone, and 5 µg/mL insulin). In these experiments, 6- to 7-days in vitro (DIV) neuronal cultures were used, containing 90% β-tubulin isotype III-positive mature neurons, as described previously.^23 All procedures associated with animal experiments were authorized by the Animal Experimentation Ethics Committee of the Hospital Universitario Ramón y Cajal (Madrid, Spain).
Experimental Ischemia in Neuronal Cultures and Treatments. Primary neuronal cultures were subjected to oxygen-glucose deprivation (OGD) to induce experimental ischemia. Cells cultured for 6- to 7- DIV were washed and placed in glucose-free DMEM medium (previously bubbled with 95% N2/5% CO2 for 30 min) and kept in a humidified anaerobic chamber containing a gas mixture of 95% N2/5% CO2 at 37 °C for 4 h (OGD 4h). Control group was placed in glucose-supplemented DMEM medium and kept in the normoxic incubator for 4h. After 4h of incubation under anoxic (OGD 4h) or normoxic (control) conditions, culture cells were quickly placed in serum-free normo-glycemic culture medium and let to reoxygenate, compounds or vehicle were added and cells were maintained in normoxic and normoglycemic conditions to recover for 24 h. Vehicle experimental group (R24h) included the same amount of vehicle solution than the groups tested with compounds (final concentration < 0.5% ethanol). The experimental procedure was blindly performed, assigning a random order to each group assayed. Compound assays were performed independently from four to eight times with different batches of cultures, and each experiment was run in quadruplicate.
Cell viability assays. To assess the potential neuroprotective effect of the compounds against OGD, cell viability was evaluated by quantification of living, metabolically active cells, as determined by the colorimetric assay using the photometric reduction of 3-(4,5-dimethylthiazol-2-yl)-2,5-diphenyl tetrazolium bromide (MTT) (Roche) to a blue formazan product. MTT assay was performed after the 24-hour-long recovery period -except for the OGD 4h group, for which MTT was added right after the end of the OGD period, with no recovery- by treating cells with 0.2 mg/mL MTT in the culture medium for 1.5 h at 37 °C in a 6.5% CO2 atmosphere. After incubation, cells were lysed with an equal volume of lysis solution (10 mM HCl, 10% SDS) overnight. Values were quantified by absorbance at 595 nm (reference 690 nm) and expressed in Absorbance Units (AU). Decreased MTT activity denotes impairment of mitochondrial function and is indicative of cell damage.
Statistical Analysis. Data from each treatment were independently analyzed and their averaged values were used for statistical analysis. The treatment information was kept concealed throughout the study. Data were represented as mean ± SE. Analysis of variance (ANOVA) was performed to compare the data between multiple concentrations, following post hoc test when analysis of variance was significant. Statistical significance level was set at α = 0.05 using Prism statistical software (GraphPad Software).
Cell viability observed in the control group was set as 100% of neuroprotection. […]

[1] = Conc 100 µM, added at onset of 24 h recovery after OGD 4 h, R24h vehicle = 0%, control = 100%, mean ± SE
[2] = added at onset of 24 h recovery after OGD 4 h, R24h vehicle = 0%, control = 100%, mean ± SE

SMILES: CC(C)(C)[N+]([O-])=Cc1ccc(S(=O)(=O)[O-])cc1S(=O)(=O)[O-].[Na+].[Na+] [NXY-059, reference compound]
- cell viability (100 µM): 1.664 ± 0.07 AU
- Neuroprotection (%) [1]: 41.93 ± 2.26%

SMILES: C#CCOc1ccc2nc(Cl)c(/C=[N+](\[O-])Cc3ccccc3)cc2c1 [QN1, (Z)-N-Benzyl-1-(2-chloro-6-(prop-2-yn-1-yloxy)quinolin-3-yl)methanimine oxide]
- Neuroprotection at 1 µM [2]: 26.9 ± 0.88%
- Neuroprotection at 10 µM [2]: 34.8 ± 0.78%
- Neuroprotection at 100 µM [1]: 41.3 ± 1.91%
- protective effect (cell viability compared with vehicle-treated group R24h), in words: no remarkable overall protective effect

SMILES: C#CCOc1ccc2nc(Cl)c(/C=[N+](\[O-])C(C)(C)C)cc2c1 [QN2, (Z)-N-tert-Butyl-1-(2-chloro-6-(prop-2-yn-1-yloxy)quinolin-3-yl)methanimine oxide]
- Neuroprotection at 1 µM [2]: 33.7 ± 0.73%
- Neuroprotection at 10 µM [2]: 33.3 ± 0.93%
- Neuroprotection at 100 µM [1]: 40 ± 0.77%
- protective effect (cell viability compared with vehicle-treated group R24h), in words: no remarkable overall protective effect

SMILES: [O-]/[N+](=C\c1cc2cc(OCc3ccccc3)ccc2nc1Cl)Cc1ccccc1 [QN3, (Z)-N-Benzyl-1-(6-(benzyloxy)-2-chloroquinolin-3-yl)methanimine oxide]
- Neuroprotection at 1 µM [2]: 45.2 ± 1%

SMILES: CC(C)(C)/[N+]([O-])=C/c1cc2cc(OCc3ccccc3)ccc2nc1Cl [QN4, (Z)-N-tert-Butyl-1-(6-(benzyloxy)-2-chloroquinolin-3-yl)methanimine oxide]
- neuroprotection effect / potency compared with references, in words: highest neuroprotection effect
- cell viability (1 µM): 1.777 ± 0.04 AU
- Neuroprotection at 1 µM [2]: 67.9 ± 1.44%

SMILES: COc1ccc2nc(O)c(/C=[N+](\[O-])C(C)(C)C)cc2c1 [QN5, (Z)-N-tert-Butyl-1-(2-hydroxy-6-methoxyquinolin-3-yl)methanimine oxide]
- Neuroprotection at 1 µM [2]: 24.5 ± 0.54%
- protective effect (cell viability compared with vehicle-treated group R24h), in words: did not give a remarkable protective effect

SMILES: COc1ccc2nc(F)c(/C=[N+](\[O-])Cc3ccccc3)cc2c1 [QN6, (Z)-N-Benzyl-1-(6-(methoxy)-2-fluoroquinolin-3-yl)methanimine oxide]
- Neuroprotection at 1 µM [2]: 26.3 ± 0.89%
- Neuroprotection at 10 µM [2]: 25.1 ± 1.03%
- protective effect (cell viability compared with vehicle-treated group R24h), in words: did not show significant differences to the value obtained for the vehicle-treated group

SMILES: COc1ccc2nc(F)c(/C=[N+](\[O-])C(C)(C)C)cc2c1 [QN7, (Z)-N-tert-Butyl-1-(6-(methoxy)-2-fluoroquinolin-3-yl)methanimine oxide]
- Neuroprotection at 1 µM [2]: 38.5 ± 0.62%
- protective effect (cell viability compared with vehicle-treated group R24h), in words: did not show significant differences to the value obtained for the vehicle-treated group

SMILES: COc1ccc2nc(S(=O)(=O)c3ccccc3)c(/C=[N+](\[O-])Cc3ccccc3)cc2c1 [QN8, (Z)-N-Benzyl-1-(6-methoxy-2-(phenylsulfonyl)quinolin-3-yl)methanimine oxide]
- neuroprotection effect / potency compared with references, in words: highest neuroprotection effect
- Neuroprotection at 1 µM [2]: 54.1 ± 2.27%

SMILES: COc1ccc2nc(S(=O)(=O)c3ccc([N+](=O)[O-])cc3)c(/C=[N+](\[O-])Cc3ccccc3)cc2c1 [QN10, (Z)-N-Benzyl-1-(2-((4-nitrophenyl)sulfonyl)-6-methoxyquinolin-3-yl)methanimine oxide]
- Neuroprotection at 1 µM [2]: 47.2 ± 0.94%

SMILES: COc1ccc2nc(S(=O)(=O)c3ccc([N+](=O)[O-])cc3)c(/C=[N+](\[O-])C(C)(C)C)cc2c1 [QN11, (Z)-N-tert-Butyl-1-(2-((4-nitrophenyl)sulfonyl)-6-methoxyquinolin-3-yl)methanimine oxide]
- Neuroprotection at 1 µM [2]: 46.5 ± 1.94%

SMILES: COc1ccc2nc(-c3ccc(C(F)(F)F)cc3)c(/C=[N+](\[O-])C(C)(C)C)cc2c1 [QN13, (Z)-N-tert-Butyl-1-(6-methoxy-2-(4-(trifluoromethyl)phenyl)quinolin-3-yl)methanimine oxide]
- Neuroprotection at 1 µM [2]: 39.3 ± 1.16%

SMILES: COc1ccc2nc(-c3ccc([N+](=O)[O-])cc3)c(/C=[N+](\[O-])Cc3ccccc3)cc2c1 [QN14, (Z)-N-Benzyl-1-(6-methoxy-2-(4-nitrophenyl)quinolin-3-yl)methanimine oxide]
- neuroprotection effect / potency compared with references, in words: highest neuroprotection effect
- cell viability (1 µM): 1.742 ± 0.04 AU
- Neuroprotection at 1 µM [2]: 60.1 ± 1.24%
- toxicity / safety, in words: safe

SMILES: COc1ccc2nc(-c3ccc([N+](=O)[O-])cc3)c(/C=[N+](\[O-])C(C)(C)C)cc2c1 [QN15, (Z)-N-tert-Butyl-1-(6-methoxy-2-(4-nitrophenyl)quinolin-3-yl)methanimine oxide]
- neuroprotection effect / potency compared with references, in words: highest neuroprotection effect
- Neuroprotection at 1 µM [2]: 48.1 ± 1.21%
- toxicity / safety, in words: safe

SMILES: CCOC(=O)/C=C/c1nc2ccc(OC)cc2cc1/C=[N+](\[O-])C(C)(C)C [QN16, (Z)-N-tert-Butyl-1-(2-((E)-3-ethoxy-3-oxoprop-1-en-1-yl)-6-methoxyquinolin-3-yl)methanimine oxide]
- effect compared with vehicle R24h, in words (1 µM dose): higher effect than vehicle R24h

SMILES: COc1ccc2nc(Cl)c(/C=[N+](\[O-])C(C)(C)C)cc2c1 [QN23, (Z)-N-tert-butyl-1-(2-chloro-6-methoxyquinolin-3-yl)methanimine oxide, reference compound]
- cell viability (10 µM): 1.695 ± 0.03 AU
- Neuroprotection at 10 µM [2]: 49 ± 0.89%

SMILES: C[N+](C)(C)CCOP(=O)(O)OP(=O)([O-])OC[C@H]1O[C@@H](n2ccc(N)nc2=O)[C@H](O)[C@@H]1O [citicoline, reference compound]
- cell viability (100 µM): 1.588 ± 0.02 AU
